Reference: US6759385B1, “Methods to treat undesirable immune responses” (Regents of the University of Minnesota, priority 1997, dated 2004)

Columns and labels:
[1] = tested on: CD8+ depleted spleen cells; experiment: Lymphocyte proliferation assay, CD8+ depleted spleen cells of IL-4 KO mice; assay type: cell-based, mouse; conditions: IL-4 KO mice immunized with TAChR, 10 μg/ml peptide
Method: Lymphocyte Proliferation Assay. Two weeks after the last immunization, spleen cells (Bellone et al., 1991) were obtained from three identically treated IL-4 KO mice. The cells were pooled and depleted them in CD8^+ cells using paramagnetic beads and rat anti-mouse CD8^+ antibody (Pharmingen, San Diego, Calif.). The cells were suspended in RPMI-1640 (Gibco, Grand Island, N.Y.) supplemented with 10% heat inactivated fetal calf serum (Gibco), 50 μM 2-mercaptoethanol, 1 mM L-glutamine, 10 mM Hepes, 1 mM sodium pyruvate, 100 U/ml penicillin and 100 μg/ml streptomycin (×10^6 cells/ml). The cells were seeded in triplicate in 96 flat-bottom well plates (200 μl/well). One of the following antigens or stimulants was added: 10 μg/ml phytohemoagglutinine (PHA) (Sigma); 10 μg/ml TAChR; the pools of overlapping peptides spanning the α, β, γ, or δ subunit sequences (5 μg/ml) of each peptide); and 10 μg/ml of the individual a subunit peptides. Controls were triplicate wells cultivated without any antigen, or with or a 20-residue control peptide synthesized by the same method, unrelated to the TAChR sequence (10 μg). After four days the cells were labeled for 16 hours with ^3H-thymidine (1 μCi per well, specific activity 6.7 Ci/mmol, Dupont, Boston, Mass.), and harvested (Titertek, Skatron, Sterling, Va.). The ^3H-thymidine incorporation was measured by liquid scintillation.

[2] = tested on: EMG in B6 mice immunized with TAChR; experiment: Subcutaneous tolerization, prevention protocol, EMG symptoms (Example IV); assay type: in vivo, mouse
Method: B6 mice (Jackson Laboratory, Bar Harbor, Me.) were injected s.c. with 100 μl of PBS containing increasing amounts of a pool of the same amount in weight of each of the three epitope peptides Tα150-169, Tα180-200 and Tα360-378 (‘peptide pool’), or 200 μg of Tα150-169 alone, or 100 μl of PBS containing 0.1% Triton X-100 and 10 μg of solubilized TAChR. Two different treatment schedules were used, referred to as prevention and post-priming protocols. In the prevention protocol, the peptides or solubilized TAChR were administered twice per week for 14 weeks, starting 2 weeks before the beginning of the immunization with TAChR. In the post-priming protocol, peptides or solubilized TAChR were administered twice per week for […], starting 8 weeks after the beginning of the TAChR immunization. Control mice received 100 μl of peptide-free PBS, following the same schedules.
Immunization 8-10 week old mice were immunized by s.c. injections, along the back and at the base of the tail, of TAChR (a total of 50 μg in 100 μl of PBS for each immunization) emulsified in an equal volume of CFA for the first injection, and IFA for the following two boosts. The mice were injected for a total of three times at 3-4 week intervals. At the end of the observation period, the mice received a third boost, and were sacrificed 5-7 days later. Control mice were injected with clean PBS in the appropriate adjuvant.
Evaluation of the symptoms of EMG The EMG symptoms were quantified using a forced exercise test sensitized by i.p. injection of a minute amount of pancuronium bromide (0.03 mg/kg) just before the test (Karachunski et al., 1995). The mouse hangs from a grid suspended above a soft padding, and the time it takes the mouse to fall three times (‘holding time’) was measured. The test is parametric, and gives a quantitative assessment of the mouse weakness. The myasthenic nature of the weakness was verified by injecting i.p. edrophonium chloride (Reversol, Organon, West Orange, N.J.), which is a cholinesterase inhibitor. […] The mice were tested without knowledge of their treatment.
The holding time of normal mice was 10.4±2.1 minutes (n=99). Mice with holding times of 8 minutes or longer were considered normal. Mice with holding times less than 6.2 minutes (the holding time of normal mice minus two SD) were considered to have fully developed EMG. Holding times of 6.2-8 minutes were considered to potentially indicate initial EMG. Normal or sham-immunized mice had occasionally holding times of 6.2-8 minutes, but never less than 6.2 minutes. Paralyzed mice and mice that died of respiratory paralysis are indicated as having holding time of 0 minutes.

spleen CD4+ T-cells = experiment: Lymphocyte proliferation assay, spleen CD4+ T-cells (Example IV); assay type: cell-based, mouse
Method: Lymphocyte proliferation assay. Five to seven days after the last TAChR immunization, CD4^+ T-cells (Bellone et al., 1991a) were purified from the pooled spleens of three to four mice that had received identical treatments. Irradiated (3000 rad) spleen cells from non-immunized mice were diluted as needed in RPMI-1640 (Gibco, Grand Island, N.Y.) supplemented with 10% heat inactivated fetal calf serum (Gibco), 50 μM 2-mercapto-ethanol, 1 mM L-glutamine, 10 mM HEPES, 1 mM sodium pyruvate, 100 U/ml penicillin and 100 μg/ml streptomycin (culture medium) and used as APC. The spleen CD4^+ T-cells (1×10^6/ml in culture medium, 100×1/well) were seeded in triplicate in 96 flat-bottom well plates containing 100×1 of 5×10^6/ml APC. One of the following Ag was added: 10 μg/ml PHA (Sigma); 5 or 10 μg/ml TAChR; 5 or 10 μg/ml of the individual epitope peptides. The concentrations of TAChR and epitope peptides are in the saturating range of the dose dependence curve (Bellone et al., 1991a), and yielded consistent results. Controls were triplicate wells containing CD4^+ cells and APC without any Ag, or with the control peptide (10 μg/ml). After 4 days the cells were labeled for 16 hours with ^3H-thymidine (1 μCi per well, specific activity 6.7 Ci/mmol, Dupont, Boston, Mass.) and harvested (Titertek, Skatron, Sterling, Va.). The ^3H-thymidine incorporation was measured by liquid scintillation, and represented the results as stimulation indexes (S.I.: the ratio between the cpm obtained in the presence of a given stimulus, and the average cpm obtained for non-stimulated control cultures).

[3] = s.c. 200 μg/injection, second experiment

Substance: peptide Tα150-169: synthetic peptide corresponding to residues 150-169 of the TAChR α subunit (TYDGTKVSISPESDRPDLST; UniProt P02710 174-193, looked up, fragment)
- recognition of individual peptide by cells from sham-treated mice [1]: recognized strongly
- mice with EMG at 8 weeks [2, 3]: One mouse
- prevention of EMG [2, 3]: prevented EMG effectively
- holding times compared with sham-tolerized groups ([2]; s.c. prevention protocol): significantly longer holding times
- response of CD4+ cells from sham-tolerized mice to the peptide (spleen CD4+ T-cells; TAChR-immunized B6 mice, 5 or 10 μg/ml): responded consistently
- response to Tα150-169 of tolerized mice (spleen CD4+ T-cells; s.c. prevention protocol): never responded
